# Literature values in patent US20060045857A1, “Sunless tanning composition and methods for using” (priority 2004, published 2006).
# Settings: in vivo
substance,measurement,value
Poly(vinylpyrrolidone/1-hexadecene) [PVPH],dermal toxicity,no demonstrable dermal toxicity
poly(vinylpyrrolidone/1-eicosene) [PVPE],dermal toxicity,no demonstrable dermal toxicity
